Tests used:
Type in all cases: functional
[1] = Cytotoxicity against human EKVX cells at 10 uM after 48 hrs by SRB assay; settings: read-out: GI
A549 = test: Cytotoxicity against human A549 cells at 10 uM after 48 hrs by SRB assay; settings: A549, 48 h, read-out: GI
HCT-15 = test: Cytotoxicity against human HCT15 cells at 10 uM after 48 hrs by SRB assay; settings: HCT-15, 48 h, read-out: GI
LOX IMVI = test: Cytotoxicity against human LOXIMVI cells at 10 uM after 48 hrs by SRB assay; settings: read-out: GI
MOLT-4 = test: Cytotoxicity against human MOLT4 cells at 10 uM after 48 hrs by SRB assay; settings: MOLT-4, 48 h, read-out: GI
786-0 = test: Cytotoxicity against human 786-0 cells at 10 uM after 48 hrs by SRB assay; settings: 786-0, 48 h, read-out: GI
PC-3 = test: Cytotoxicity against human PC3 cells at 10 uM after 48 hrs by SRB assay; settings: PC-3, 48 h, read-out: GI
SN12C = test: Cytotoxicity against human SN12C cells at 10 uM after 48 hrs by SRB assay; settings: read-out: GI
NCI/ADR-RES = test: Cytotoxicity against human NCI/ADR-RES cells at 10 uM after 48 hrs by SRB assay; settings: read-out: GI
MDA-MB-435 = test: Cytotoxicity against human MDA-MB-435 cells at 10 uM after 48 hrs by SRB assay; settings: MDA-MB-435, 48 h, read-out: GI
SNB-19 = test: Cytotoxicity against human SNB19 cells at 10 uM after 48 hrs by SRB assay; settings: SNB-19, 48 h, read-out: GI
TK-10 = test: Cytotoxicity against human TK10 cells at 10 uM after 48 hrs by SRB assay; settings: TK-10, 48 h, read-out: GI
UACC-257 = test: Cytotoxicity against human UACC257 cells at 10 uM after 48 hrs by SRB assay; settings: UACC-257, 48 h, read-out: GI
UACC-62 = test: Cytotoxicity against human UACC62 cells at 10 uM after 48 hrs by SRB assay; settings: UACC-62, 48 h, read-out: GI
SK-MEL-28 = test: Cytotoxicity against human SK-MEL-28 cells at 10 uM after 48 hrs by SRB assay; settings: SK-MEL-28, 48 h, read-out: GI
HCC 2998 = test: Cytotoxicity against human HCC2998 cells at 10 uM after 48 hrs by SRB assay; settings: HCC 2998, 48 h, read-out: GI
SW-620 = test: Cytotoxicity against human SW620 cells at 10 uM after 48 hrs by SRB assay; settings: SW-620, 48 h, read-out: GI
SR = test: Cytotoxicity against human SR cells at 10 uM after 48 hrs by SRB assay; settings: read-out: GI
OVCAR-4 = test: Cytotoxicity against human OVCAR4 cells at 10 uM after 48 hrs by SRB assay; settings: OVCAR-4, 48 h, read-out: GI
HOP-62 = test: Cytotoxicity against human HOP62 cells at 10 uM after 48 hrs by SRB assay; settings: HOP-62, 48 h, read-out: GI
CAKI-1 = test: Cytotoxicity against human Caki1 cells at 10 uM after 48 hrs by SRB assay; settings: CAKI-1, 48 h, read-out: GI
OVCAR-8 = test: Cytotoxicity against human OVCAR8 cells at 10 uM after 48 hrs by SRB assay; settings: OVCAR-8, 48 h, read-out: GI
NCI-H226 = test: Cytotoxicity against human NCI-H226 cells at 10 uM after 48 hrs by SRB assay; settings: NCI-H226, 48 h, read-out: GI
SK-OV-3 = test: Cytotoxicity against human SKOV3 cells at 10 uM after 48 hrs by SRB assay; settings: SK-OV-3, 48 h, read-out: GI
RPMI-8226 = test: Cytotoxicity against human RPMI8226 cells at 10 uM after 48 hrs by SRB assay; settings: RPMI-8226, 48 h, read-out: GI
SF-295 = test: Cytotoxicity against human SF295 cells at 10 uM after 48 hrs by SRB assay; settings: SF-295, 48 h, read-out: GI
COLO 205 = test: Cytotoxicity against human COLO205 cells at 10 uM after 48 hrs by SRB assay; settings: COLO 205, 48 h, read-out: GI
SF-539 = test: Cytotoxicity against human SF539 cells at 10 uM after 48 hrs by SRB assay; settings: SF-539, 48 h, read-out: GI
SK-MEL-5 = test: Cytotoxicity against human SK-MEL-5 cells at 10 uM after 48 hrs by SRB assay; settings: SK-MEL-5, 48 h, read-out: GI
HL-60(TB) = test: Cytotoxicity against human HL-60(TB) cells at 10 uM after 48 hrs by SRB assay; settings: HL-60, 48 h, read-out: GI
HOP-92 = test: Cytotoxicity against human HOP92 cells at 10 uM after 48 hrs by SRB assay; settings: HOP-92, 48 h, read-out: GI
IGROV-1 = test: Cytotoxicity against human IGROV1 cells at 10 uM after 48 hrs by SRB assay; settings: IGROV-1, 48 h, read-out: GI
DU-145 = test: Cytotoxicity against human DU145 cells at 10 uM after 48 hrs by SRB assay; settings: DU-145, 48 h, read-out: GI
ACHN = test: Cytotoxicity against human ACHN cells at 10 uM after 48 hrs by SRB assay; settings: read-out: GI
UO-31 = test: Cytotoxicity against human UO31 cells at 10 uM after 48 hrs by SRB assay; settings: UO-31, 48 h, read-out: GI
MCF7 = test: Cytotoxicity against human MCF7 cells at 10 uM after 48 hrs by SRB assay; settings: MCF7, 48 h, read-out: GI
SF-268 = test: Cytotoxicity against human SF268 cells at 10 uM after 48 hrs by SRB assay; settings: SF-268, 48 h, read-out: GI
OVCAR-3 = test: Cytotoxicity against human OVCAR3 cells at 10 uM after 48 hrs by SRB assay; settings: OVCAR-3, 48 h, read-out: GI
NCI-H522 = test: Cytotoxicity against human NCI-H522 cells at 10 uM after 48 hrs by SRB assay; settings: NCI-H522, 48 h, read-out: GI
MDA-MB-231 = test: Cytotoxicity against human MDA-MB-231 cells at 10 uM after 48 hrs by SRB assay; settings: MDA-MB-231, 48 h, read-out: GI
T47D = test: Cytotoxicity against human T47D cells at 10 uM after 48 hrs by SRB assay; settings: read-out: GI
NCI-H322M = test: Cytotoxicity against human NCI-H322M cells at 10 uM after 48 hrs by SRB assay; settings: read-out: GI

Measured: inhibition of growth at 10 µM

C=CCn1c(C)nc2cc(Nc3nc(Cl)nc4ccccc34)ccc21
16.9%: CAKI-1
19.5%: PC-3
17.2%: [1]
< 10%: A549 | HCT-15 | LOX IMVI | MOLT-4 | 786-0 | SN12C | MDA-MB-435 | SNB-19 | TK-10 | UACC-257 | SK-MEL-28 | HCC 2998 | SW-620 | SR | OVCAR-4 | HOP-62 | OVCAR-8 | SK-OV-3 | COLO 205 | SF-539 | SK-MEL-5 | HL-60(TB) | HOP-92 | IGROV-1 | DU-145 | ACHN | MCF7 | SF-268 | OVCAR-3 | NCI-H522 | NCI-H322M
17.8%: NCI-H226
10.2%: UACC-62
10.5%: NCI/ADR-RES
22.3%: RPMI-8226
21.3%: T47D
14.5%: MDA-MB-231
10.3%: SF-295 | UO-31

C=CCn1c(C)nc2ccc(Nc3nc(N4CCN(C)CC4)nc4ccccc34)cc21
20.7%: OVCAR-4
28.5%: RPMI-8226
23.6%: COLO 205
23.4%: OVCAR-8
23.5%: SF-539
20.6%: T47D
22.8%: MDA-MB-231
10.1%: HCT-15
34.2%: UO-31
13.6%: NCI-H226
11.3%: HOP-62
25.9%: PC-3
43.1%: MOLT-4
18.3%: SK-MEL-5
42.4%: HOP-92
< 10%: A549 | 786-0 | SN12C | NCI/ADR-RES | MDA-MB-435 | SNB-19 | TK-10 | UACC-257 | UACC-62 | SK-MEL-28 | HCC 2998 | SW-620 | SK-OV-3 | SF-295 | HL-60(TB) | IGROV-1 | DU-145 | ACHN | SF-268 | OVCAR-3 | NCI-H522 | NCI-H322M
14.4%: CAKI-1 | MCF7
18%: LOX IMVI

C=CCn1c(C)nc2cc(Nc3nc(N4CCCC4)nc4ccccc34)ccc21
22.6%: T47D
15.5%: HOP-92
12.2%: RPMI-8226
10.2%: CAKI-1
22%: NCI-H226
11%: SR
11.1%: 786-0
< 10%: [1] | HCT-15 | LOX IMVI | MOLT-4 | SN12C | NCI/ADR-RES | MDA-MB-435 | SNB-19 | TK-10 | UACC-257 | UACC-62 | SK-MEL-28 | HCC 2998 | SW-620 | OVCAR-4 | HOP-62 | OVCAR-8 | SK-OV-3 | SF-295 | SF-539 | SK-MEL-5 | HL-60(TB) | IGROV-1 | DU-145 | ACHN | MCF7 | SF-268 | OVCAR-3 | NCI-H522 | MDA-MB-231 | NCI-H322M
18.2%: PC-3
10.1%: A549 | UO-31

C=CCn1c(C)nc2ccc(Nc3nc(N4CCOCC4)nc4ccccc34)cc21
20.1%: OVCAR-8
23.6%: NCI/ADR-RES
11.2%: T47D
61.9%: HL-60(TB)
< 10%: [1] | HCT-15 | LOX IMVI | 786-0 | SN12C | MDA-MB-435 | SNB-19 | TK-10 | UACC-257 | UACC-62 | SK-MEL-28 | HCC 2998 | SW-620 | SR | OVCAR-4 | HOP-62 | NCI-H226 | SK-OV-3 | SF-295 | COLO 205 | SF-539 | SK-MEL-5 | HOP-92 | IGROV-1 | DU-145 | ACHN | MCF7 | SF-268 | OVCAR-3 | NCI-H522 | MDA-MB-231 | NCI-H322M
11.8%: A549
14.7%: UO-31
11.5%: CAKI-1
11.4%: PC-3

From ChEMBL document CHEMBL2380212, “Synthesis, single crystal and antitumor activities of benzimidazole-quinazoline hybrids” (Bioorg Med Chem Lett, 2013)
